Each structure is given as a SMILES string.

The assay relates to BLT1 and BLT2 receptors. In words: Ca2+ flux assay for LTB4 antagonist assay (HL-60 FLIPR). Type of assay: cell-based, Human. Conditions: retinoic acid induced HL-60 cells endogenously expressing BLT1 and BLT2; inhibition of LTB4-induced Ca2+ flux; 30 min compound preincubation; read-out: LTB4 antagonism (HL-60 FLIPR). How it is done: Ca^2+ Flux Assay for LTB4 Antagonist Assay
Human leukemia HL-60 cells endogenously expressing BLT1 and BLT2 receptors were cultured in RPMI-1640 medium supplemented with 20% fetal bovine serum, 2 mM glutamine, 100 U/mL penicillin and 100 ug/mL streptomycin.
Seventy two hours prior to experiment cells are counted using ViaCount reagent, centrifuged and resuspended at 2.0×10^5 cells/ml density with the complete growth media containing 1 μM retinoic acid (Sigma).
On a day of the experiment loading buffer (Calcium-3 Assay Kit, Molecular Devices) was prepared by dissolving the contents of one vial (Express Kit) into 500 ml Hank's Balanced Salt Solution containing 20 mM HEPES and 5 mM probenecid. Equal volume of the loading buffer was mixed with the replacement buffer (Hank's Balanced Salt Solution containing 20 mM HEPES, 0.05% BSA and 5 mM probenecid). Retinoic acid induced HL-60 cells were counted using ViaCount reagent, centrifuged and resuspended at 2.0×10^6 cells/mL density with the loading buffer/replacement buffer, dispensed into 384 well black/clear microplates (Falcon)(25 μL/well) and placed in a 37° C./5% CO2 incubator for 1 hour.
During the incubation, test compounds were prepared at 6× the desired concentration in HBSS/20 mM HEPES/0.05% BSA as well as LTB4 (Biomol) was prepared at 2.2× concentration in HBSS/20 mM HEPES/0.5% BSA buffer.
After the incubation, both the cell and compound plates were brought to the FLIPR and 5 μL of the diluted compounds were transferred to the cell plates by the FLIPR. Plates were then incubated for 30 min at room temperature. After the ½ hour incubation, plates were returned to the FLIPR and 25 μL of 2.2×LTB4 was added to the cell plates. During the assay, fluorescence readings were taken simultaneously from all 384 wells of the cell plate every 1.5 seconds. Five readings were taken to establish a stable baseline, then 25 μL (LTB4) of sample was rapidly and simultaneously added to each well of the cell plate. The fluorescence was continuously monitored before, during and after sample addition for a total elapsed time of 100 seconds. Responses (increase in peak fluorescence) in each well following agonist addition was determined. The initial fluorescence reading from each well, prior to ligand stimulation, was used a zero baseline value for the data from that well. The responses are expressed as % inhibition of the neutral control (neural control: wells that received buffer plus DMSO but no test compound).
As to `O=C(O)CCCOc1cccc(CCCCCCOc2cc(C(=O)NCc3ccccc3)cc(-c3c(F)cccc3F)c2)c1CCC(=O)O` [Example 5, 4-[3-[6-(5-Benzylcarbamoyl-2′,6′-difluoro-biphenyl-3-yloxy)-hexyl]-2-(2-carboxy-ethyl)-phenoxy]-butyric acid], the IC50 came to 299000 pM.
Then `Cc1cscc1-c1cc(OCCCCCCc2cccc(OCCCC(=O)O)c2CCC(=O)O)cc(C(=O)N2CCN(C)CC2)c1` [Example 24, 4-(2-(2-Carboxy-ethyl)-3-{6-[3-(4-methyl-piperazine-1-carbonyl)-5-(4-methyl-thiophen-3-yl)-phenoxy]-hexyl}-phenoxy)-butyric acid], with 47300 pM; and `CN1CCN(C(=O)c2cc(OCCCCCCc3cccc(OCCCC(=O)O)c3CCC(=O)O)cc(-c3ccccc3)c2)CC1` [Example 28, 4-(2-(2-Carboxy-ethyl)-3-{6-[5-(4-methyl-piperazine-1-carbonyl)-biphenyl-3-yloxy]-hexyl}-phenoxy)-butyric acid], with 220 pM.
Turning to `CN1CCCN(C(=O)c2cc(OCCCCCCc3cccc(OCCCC(=O)O)c3CCC(=O)O)cc(-c3ccc4c(c3)OCO4)c2)CC1` [Example 36, 4-[3-{6-[3-Benzo[1,3]dioxol-5-yl-5-(4-methyl-[1,4]diazepane-1-carbonyl)-phenoxy]-hexyl}-2-(2-carboxy-ethyl)-phenoxy]-butyric acid], the IC50 was found to be 140 pM.
With `O=C(O)CCCOc1cccc(CCCCCCOc2cc(C(=O)N3CCCCC3)cc(-c3ccc4c(c3)OCO4)c2)c1CCC(=O)O` [Example 42, 4-[3-{6-[3-Benzo[1,3]dioxol-5-yl-5-(piperidine-1-carbonyl)-phenoxy]-hexyl}-2-(2-carboxy-ethyl)-phenoxy]-butyric acid], the IC50 turned out to be 210 pM.
Consider `O=C(O)CCCOc1cccc(CCCCCCOc2cc(C(=O)N3CCNCC3)cc(-c3ccc4c(c3)OCO4)c2)c1CCC(=O)O` [Example 44, 4-[3-{6-[3-Benzo[1,3]dioxol-5-yl-5-(piperazine-1-carbonyl)-phenoxy]-hexyl}-2-(2-carboxy-ethyl)-phenoxy]-butyric acid], for which the IC50 amounted to 80 pM.
Then `CC1CCCN(C(=O)c2cc(OCCCCCCc3cccc(OCCCC(=O)O)c3CCC(=O)O)cc(-c3ccc4c(c3)OCO4)c2)C1` (stereo not shown) [Example 46, 4-[3-{6-[3-Benzo[1,3]dioxol-5-yl-5-(3-methyl-piperidine-1-carbonyl)-phenoxy]-hexyl}-2-(2-carboxy-ethyl)-phenoxy]-butyric acid], with 7460 pM; and `O=C(O)CCCOc1cccc(CCCCCCOc2cc(C(=O)NC3CC3)cc(-c3ccc4c(c3)OCO4)c2)c1CCC(=O)O` [Example 51, 4-[3-[6-(3-Benzo[1,3]dioxol-5-yl-5-cyclopropylcarbamoyl-phenoxy)-hexyl]-2-(2-carboxy-ethyl)-phenoxy]-butyric acid], with 80 pM.
Next, `CN(C)C(=O)c1cc(OCCCCCCc2cccc(OCCCC(=O)O)c2CCC(=O)O)cc(-c2ccc3c(c2)OCO3)c1` [Example 53, 4-[3-[6-(3-Benzo[1,3]dioxol-5-yl-5-dimethylcarbamoyl-phenoxy)-hexyl]-2-(2-carboxy-ethyl)-phenoxy]-butyric acid]: 100 pM; `NC(=O)c1cc(OCCCCCCc2cccc(OCCCC(=O)O)c2CCC(=O)O)cc(-c2ccc3c(c2)OCO3)c1` [Example 55, 4-[3-[6-(3-Benzo[1,3]dioxol-5-yl-5-carbamoyl-phenoxy)-hexyl]-2-(2-carboxy-ethyl)-phenoxy]-butyric acid]: 200 pM; `O=C(O)CCCOc1cccc(CCCCCCOc2cc(C(=O)NC3CCC3)cc(-c3ccc4c(c3)OCO4)c2)c1CCC(=O)O` [Example 61, 4-[3-[6-(3-Benzo[1,3]dioxol-5-yl-5-cyclobutylcarbamoyl-phenoxy)-hexyl]-2-(2-carboxy-ethyl)-phenoxy]-butyric acid]: 210 pM.
Then `O=C(O)CCCOc1cccc(CCCCCCOc2cc(C(=O)NC3CCC3)cc(-c3cccc(F)c3)c2)c1CCC(=O)O` [Example 67, 4-{2-(2-Carboxy-ethyl)-3-[6-(5-cyclobutylcarbamoyl-3′-fluoro-biphenyl-3-yloxy)-hexyl]-phenoxy}-butyric acid], with 52200 pM; and `CCN(C)C(=O)c1cc(OCCCCCCc2cccc(OCCCC(=O)O)c2CCC(=O)O)cc(-c2ccc3c(c2)OCO3)c1` [Example 73, 4-[3-{6-[3-Benzo[1,3]dioxol-5-yl-5-(ethyl-methyl-carbamoyl)-phenoxy]-hexyl}-2-(2-carboxy-ethyl)-phenoxy]-butyric acid], with 250 pM.
Turning to `CNC(=O)c1cc(OCCCCCCc2cccc(OCCCC(=O)O)c2CCC(=O)O)cc(-c2ccc3c(c2)OCCO3)c1` [Example 77, 4-(2-(2-Carboxy-ethyl)-3-{6-[3-(2,3-dihydro-benzo[1,4]dioxin-6-yl)-5-methylcarbamoyl-phenoxy]-hexyl}-phenoxy)-butyric acid], the IC50 amounted to 2410 pM.
Consider `CN(C)C(=O)c1cc(OCCCCCCc2cccc(OCCCC(=O)O)c2CCC(=O)O)cc(-c2ccsc2)c1` [Example 85, 4-{2-(2-Carboxy-ethyl)-3-[6-(3-dimethylcarbamoyl-5-thiophen-3-yl-phenoxy)-hexyl]-phenoxy}-butyric acid], for which the IC50 turned out to be 280 pM.
Regarding `Cc1ccc(-c2cc(OCCCCCCc3cccc(OCCCC(=O)O)c3CCC(=O)O)cc(C(=O)N(C)C)c2)cc1F` [Example 105, 4-{2-(2-Carboxy-ethyl)-3-[6-(5-dimethylcarbamoyl-3′-fluoro-4′-methyl-biphenyl-3-yloxy)-hexyl]-phenoxy}-butyric acid], the IC50 was determined as 790 pM.
Then `Cc1ccc(-c2cc(OCCCCCCc3cccc(OCCCC(=O)O)c3CCC(=O)O)cc(C(=O)N(C)C)c2)cc1` [Example 112, 4-{2-(2-Carboxy-ethyl)-3-[6-(5-dimethylcarbamoyl-4′-methyl-biphenyl-3-yloxy)-hexyl]-phenoxy}-butyric acid], with 240 pM.
Next, `CN1CCN(C(=O)c2cc(CCCCCCCc3cccc(OCCCC(=O)O)c3CCC(=O)O)cc(-c3ccccc3)c2)CC1` [Example 118, 4-(2-(2-Carboxy-ethyl)-3-{7-[5-(4-methyl-piperazine-1-carbonyl)-biphenyl-3-yl]-heptyl}-phenoxy)-butyric acid]: 19500 pM.
Next, `CN(C)C(=O)c1cc(C#CCCCCCc2cccc(OCCCC(=O)O)c2CCC(=O)O)cc(-c2ccc(O)cc2)c1` [Example 122, 4-{2-(2-Carboxy-ethyl)-3-[7-(5-dimethylcarbamoyl-4′-hydroxy-biphenyl-3-yl)-hept-6-ynyl]-phenoxy}-butyric acid]: 15600 pM.
